Data published in patent US12606520B2, “Calpain-2 inhibitor compounds and methods of treatment” (WESTERN UNIVERSITY OF HEALTH SCIENCES, priority 2020, dated 2026).

Columns and labels:
[1] = biological target: T1, calpain-2 (Mus musculus, UniProt O08529); assay: Calpain-2 activity in calpain-1 KO mouse cerebellar homogenate (2 mM Ca2+), Suc-Leu-Tyr-AMC cleavage; assay type: biochemical; design: Calpain-2 activity=calpain activity under 2000 uM Ca^2+ in calpain-1 KO mice; from tissue; host or cells: calpain-1 knock-out mouse cerebellar (P2) homogenate
T1 sequence (O08529 1-700): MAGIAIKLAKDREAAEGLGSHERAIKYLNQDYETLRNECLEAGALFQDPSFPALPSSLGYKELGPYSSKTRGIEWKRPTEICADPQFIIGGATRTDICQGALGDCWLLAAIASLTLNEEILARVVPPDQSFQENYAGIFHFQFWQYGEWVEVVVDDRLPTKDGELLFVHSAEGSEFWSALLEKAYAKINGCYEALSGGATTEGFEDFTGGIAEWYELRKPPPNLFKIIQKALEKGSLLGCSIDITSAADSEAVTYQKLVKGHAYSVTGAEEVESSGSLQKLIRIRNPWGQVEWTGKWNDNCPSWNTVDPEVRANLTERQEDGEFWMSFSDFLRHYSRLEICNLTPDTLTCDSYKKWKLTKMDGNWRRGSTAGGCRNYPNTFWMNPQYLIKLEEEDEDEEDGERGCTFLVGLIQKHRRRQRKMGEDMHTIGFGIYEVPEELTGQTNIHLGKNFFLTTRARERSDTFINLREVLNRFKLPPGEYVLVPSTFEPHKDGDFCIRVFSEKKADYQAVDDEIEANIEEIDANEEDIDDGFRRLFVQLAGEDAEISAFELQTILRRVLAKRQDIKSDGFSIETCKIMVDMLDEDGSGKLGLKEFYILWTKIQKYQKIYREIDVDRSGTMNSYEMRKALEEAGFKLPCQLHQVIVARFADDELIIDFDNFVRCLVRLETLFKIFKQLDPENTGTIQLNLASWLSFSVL
T1 sequence (O88456 1-268 partner): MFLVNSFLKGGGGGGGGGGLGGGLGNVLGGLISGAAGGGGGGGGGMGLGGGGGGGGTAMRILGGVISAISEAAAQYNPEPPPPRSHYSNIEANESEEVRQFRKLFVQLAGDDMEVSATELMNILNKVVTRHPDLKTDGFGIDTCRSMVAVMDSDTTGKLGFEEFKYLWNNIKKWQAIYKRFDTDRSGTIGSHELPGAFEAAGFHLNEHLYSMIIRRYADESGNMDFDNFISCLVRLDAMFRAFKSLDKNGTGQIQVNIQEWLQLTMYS
Description: Cerebellar homogenates from wild-type (WT) or calpain-1 Knock-out (KO) mice were incubated with 20 μM calcium to activate calpain-1 or with 2 mM calcium to activate calpain-2, respectively, and increasing concentrations of NA112 (12). Calpain activity was measured by the cleavage of Succinyl-Leu-Tyr-7-amino-4-methylcoumarin (Suc-Leu-Tyr-AMC), resulting in increased fluorescence. Activity is normalized to the value measured in the presence of vehicle (DMSO).
WT or calpain-1 KO mouse cerebellar P2 homogenate (crude synaptosomal fraction) were used for measuring inhibitory activity of compounds against the mouse endogenous calpain-1/-2. Each reaction contains 100 ul of WT or calpain-1 KO mouse cerebellar P2 homogenate+0, 20 or 2000 uM Ca^2++0-10,000 nM NA184.
Calpain-2 activity=calpain activity under 2000 uM Ca^2+ in calpain-1 KO mice

[2] = system: TUNEL-positive cells; assay: TUNEL staining of brain 24 h after TBI in WT mice; assay type: in vivo
Description: Quantification of TUNEL staining 24 h after TBI plus i.p. injection of NA112 at 0.1 or 1.0 mg/kg. Total numbers of TUNEL-positive cells in 3 coronal sections (Bregma 0.50, −0.58, −1.58 mm) of each brain were counted and averaged. Results are means S.E.M. of 3 animals. * p<0.05 vs Vehicle. One-way ANOVA followed by Bonferroni test.
Vehicle (control liposomes) or 0.1 or 1 mg/kg of NA112 dissolved in liposomal formulation was injected 1 h after TBI in WT mice. Animals were sacrificed 24 h later and brains were stained with TUNEL staining to analyze the extent of cell death.
The number of TUNEL-positive cells in images similar to those shown in FIG. 12 was quantified (FIG. 13). Results in FIG. 13 are Means±S.E.M. of 3 different animals.
Quantification of TUNEL staining 24 h after TBI plus i.p. injection of WT mice with NA184 at indicated doses 1 h after TBI. Total numbers of TUNEL-positive cells in 3 coronal sections (Bregma 0.50, −0.58, −1.58 mm) of each brain were counted and averaged. Results are means±S.E.M. of 3-6 animals. * p<0.05, ** p<0.01, vs Vehicle. One-way ANOVA followed by Bonferroni test (FIG. 20).

SMILES	IC50 ([1]; read-out: IC50, 2000 μM Ca^2+ (calpain-1 KO), calpain-1 KO mouse cerebellar homogenate, 2 mM calcium) [nM]	TUNEL staining ([2]; liposomal formulation, 0.1 or 1 mg/kg 1 h after TBI, 24 h later)	Ratio (IC50 calpain-1/calpain-2) ([1]; mouse cerebellar P2 homogenate)	ED50 ([2]; Mus musculus, ip, i.p. 1 h after TBI, DMSO solution, TUNEL 24 h after TBI) [mg/kg]
CCC(NC(=O)[C@H](CC(C)C)NC(=O)NCc1ccccc1)C(=O)C(=O)NCc1cc(OC)cc(OC)c1 (mixture of isomers) [NA112, (2S)-2-(3-benzylureido)-N-(1-((3,5-dimethoxybenzyl)amino)-1,2-dioxopentan-3-yl)-4-methylpentanamide]	106	decrease in TUNEL staining		
CCC(NC(=O)[C@H](CC(C)C)NC(=O)NCc1ccccc1)C(=O)C(=O)NCc1cccc(Cl)c1OC (stereo partly drawn) [NA184, (2S)-2-(3-benzylureido)-N-(1-((3-chloro-2-methoxybenzyl)amino)-1,2-dioxopentan-3-yl)-4-methylpentanamide]			21	~0.13
